Data on 71 compounds can be found in paper PMC9579956 (RSC Medicinal Chemistry, 2022).

The target in this test is Mycobacterium thermoresistible (Mtr) LpqY (Mycolicibacterium thermoresistibile, UniProt G7CES0). It is filed as binding. Conditions: single dose MST screen against LpqY.
Mycobacterium thermoresistible (Mtr) LpqY, sequence (G7CES0 29-471): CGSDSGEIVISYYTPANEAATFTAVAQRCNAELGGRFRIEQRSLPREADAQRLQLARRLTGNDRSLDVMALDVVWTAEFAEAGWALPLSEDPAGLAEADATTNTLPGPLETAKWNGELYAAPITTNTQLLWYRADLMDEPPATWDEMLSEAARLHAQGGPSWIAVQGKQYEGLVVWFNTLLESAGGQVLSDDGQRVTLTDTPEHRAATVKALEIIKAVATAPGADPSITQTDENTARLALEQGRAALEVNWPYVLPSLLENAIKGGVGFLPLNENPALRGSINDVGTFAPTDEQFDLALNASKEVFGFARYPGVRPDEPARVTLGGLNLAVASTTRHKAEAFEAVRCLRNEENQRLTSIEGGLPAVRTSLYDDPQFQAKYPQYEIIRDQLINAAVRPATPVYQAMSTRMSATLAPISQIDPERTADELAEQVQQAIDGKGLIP
`c1ccc(Oc2ccc(-c3cc(N4CCNCC4)[nH]n3)cc2)cc1` [MMV687706]: the “Pathogen Box screen signal/noise ratio” value is listed as -0.0238.
Then `Cc1nn2c(=O)c3c([nH]c2c1-c1ccc(Cl)cc1)CCCC3` [MMV688776], with 1.5.
Then `C[C@H](c1ccc2c(c1)CCCC2)N(C)c1ncc2c(N)nc(N)nc2n1` [MMV690103], with 1.5; and `CC(=O)Nc1ccc(NC(=O)c2cc(-c3cc(Cl)ccc3O)[nH]n2)cc1` [MMV676380], with 1.2.
To `CN1CCN(c2nccc3nc(-c4ccc(F)c(F)c4)[nH]c23)CC1` [MMV676260] belongs 0.635; to `Cc1cc(Cl)ccc1NC(=O)CCc1ccc(S(=O)(=O)NCC(C)C)cc1` [MMV161996], 1.2.
In the case of `N=C(N)Nc1ccc(-c2ccc(-c3ccc(N=C(N)N)c(Cl)c3)o2)cc1Cl` [MMV688271], the “Pathogen Box screen signal/noise ratio” value was determined as 2.0.
Take `CN1CCC(NCc2cccc(-c3ccc(S(=O)(=O)NCc4ccccc4)cc3)c2)CC1` [MMV022029]: the “Pathogen Box screen signal/noise ratio” value is on record as -0.0167.
To `NC(=O)c1cc(Br)ccc1OCCOc1ccccc1` [MMV687243] belongs 0.4; to `CCCc1ccc(S(=O)(=O)Nc2ccc(CN3CCN(CC4CC4)CC3)cc2)cc1` [MMV688125], 0.6.
Then `CCC(=O)Nc1ccccc1C(=O)Nc1ccccn1` [MMV202553], with 1.4; and `CN(C(=O)c1cc2c(-c3cncnc3)cccc2[nH]1)c1ccccc1` [MMV024443], with -0.0357.
Then `CNC(=O)c1cc(S(=O)(=O)N2CCN(c3ccccn3)CC2)cs1` [MMV020136], with 0.5; and `Nc1ccc2ncnc(Nc3ccc(OCc4cccc(F)c4)c(Cl)c3)c2c1` [MMV688273], with 0.8.
In the case of `COc1ccc(Nc2ccccc2NC(=O)c2ccc(O)nc2)cc1` [MMV676554], the “Pathogen Box screen signal/noise ratio” value is 1.8.
Consider `COc1ccc(CCN2CCC(NCc3cccc(N(C)C)c3)CC2)cc1` [MMV011511], for which the “Pathogen Box screen signal/noise ratio” value came to 0.8.
To `Nc1ncnc2c1ncn2C[C@@H](O)[C@@H](O)C(=O)O` [MMV689255] belongs 2.5; to `Cc1[nH]c2ccccc2c1C(c1cccs1)N1CCN(C)CC1` (centres unmarked) [MMV688768], 2.1; to `CCOc1ccc(OCC(=O)Nc2cc(C)cc(C)c2)cc1` [MMV676470], 0.2.
As for `CC(C)(CN)c1nc(-c2ccc(Cl)c(O)c2)c(-c2ccnc(N)n2)[nH]1` [MMV030734], the “Pathogen Box screen signal/noise ratio” value is given as 3.5.
As for `NCCCC(N)(C(=O)O)C(F)F` (centres unmarked) [MMV001625], the “Pathogen Box screen signal/noise ratio” value was 0.316.
`CCc1c(C)nc(-n2nc(C)cc2NC(=O)c2ccccc2SC)[nH]c1=O` [MMV676477]: the “Pathogen Box screen signal/noise ratio” value stood at 0.7.
Then `Nc1nccc2ccc(-c3ccc4nccn4c3)cc12` [MMV023233], with 0.9; and `O=C(Nc1c(O)cccc1-c1nc2c(C(=O)O)cccc2o1)c1cc(-c2ccccc2)on1` [MMV676008], with 1.7.
For the compound `CC(C)c1ncc(-c2ccncc2)c([C@H]2CC[C@H](CNC(=O)c3cccnc3)CC2)n1` [MMV676442], the “Pathogen Box screen signal/noise ratio” value turned out to be 0.8.
For the compound `NCCC(O)C(=O)N[C@@H]1C[C@H](N)[C@@H](OC2O[C@H](CN)[C@@H](O)[C@H](O)[C@H]2O)[C@H](O)C1OC1O[C@H](CO)[C@@H](O)[C@H](N)[C@H]1O` (some centres unmarked) [MMV687796], the “Pathogen Box screen signal/noise ratio” value is 1.2.
Regarding `NCC(=O)N1CCn2c(nc(-c3ccccc3)c2Nc2ccc3c(c2)OCO3)C1` [MMV011691], the “Pathogen Box screen signal/noise ratio” value worked out at 1.3.
As for `O=C(Nc1ccc(C(F)(F)F)c(C(F)(F)F)c1)c1cc(Cl)ccc1O` [MMV687807], the “Pathogen Box screen signal/noise ratio” value is reported as 0.5.
`O=C(Nc1ccccc1)c1ccc(-c2cc3ccncc3cc2OC2CCNCC2)s1` [MMV024035]: the “Pathogen Box screen signal/noise ratio” value worked out at 2.8.
For the compound `O=C(Cn1ccnc1[N+](=O)[O-])NCc1ccccc1` [MMV688773], the “Pathogen Box screen signal/noise ratio” value is listed as 2.9.
Turning to `CO[C@H]1/C=C/O[C@@]2(C)Oc3c(C)c(O)c4c(O)c(/c(=C/NN5CCN(C)CC5)c(O)c4c3C2=O)=N\C(=O)/C(C)=C\C=C/[C@H](C)[C@H](O)[C@@H](C)[C@@H](O)[C@@H](C)[C@H](OC(C)=O)[C@@H]1C` [MMV688775], the “Pathogen Box screen signal/noise ratio” value came out at 1.1.
Regarding `Cc1cc(NCC(C)C)c2n[nH]c(-c3ccccc3)c2n1` [MMV021375], the “Pathogen Box screen signal/noise ratio” value is given as 0.9.
To `O=C(Nc1ccccc1-c1nc2c(C(=O)O)cccc2o1)c1ccccc1` [MMV676162] belongs 0.9; to `CC(C)(C)c1ccc(N[C@@H]2CCCC[C@H]2NC(=O)c2ccco2)cc1` [MMV675969], 0.3; to `O=C(Nc1cccnc1)c1c(O)c2cccc3c2n(c1=O)CC3` [MMV676395], 2.1.
`CCCS(=O)(=O)N1CCC(CO)(Cc2ccccc2C(F)(F)F)CC1` [MMV001059]: the “Pathogen Box screen signal/noise ratio” value came out at 0.0926.
In the case of `Cc1cc(NC(=O)c2ccc(S(=O)(=O)N(Cc3ccccc3)C(C)C)cc2)no1` [MMV007133], the “Pathogen Box screen signal/noise ratio” value is 0.4.
To `CC(Oc1ccccc1)C(=O)Nc1nc(-c2ccccn2)cs1` (centres unmarked) [MMV676411] belongs 0.0833; to `CC(=O)N(CCN(C(=O)c1ccc(F)cc1)c1ccccc1)c1ccccc1` [MMV676064], 0.35.
To `O=C(c1ccco1)N(CCCn1ccnc1)c1nc2c(Cl)cccc2s1` [MMV688936] belongs 1.4; to `COc1cccc(OCC(=O)c2ccc(Br)cc2)c1` [MMV676379], -0.0278; to `CC(=O)NC[C@@H]1CN(c2ccc(N3CCOCC3)c(F)c2)C(=O)O1` [MMV687803], 2.0.
To `CC(=O)NC[C@H]1CN(c2ccc(N3CCSCC3)c(F)c2)C(=O)O1` [MMV688756] belongs 1.1.
Take `CC1=Nc2ccc(Cl)cc2C(c2ccccc2)N1CCNC(=O)CN(C)C` (centres unmarked) [MMV688410]: the “Pathogen Box screen signal/noise ratio” value turned out to be 0.5.
Turning to `Cc1ccc(-c2nc(CN(Cc3ccccn3)C(C)C)cs2)o1` [MMV1088520], the “Pathogen Box screen signal/noise ratio” value was 0.0.
Then `CC(=O)Nc1ccc(-c2noc(CC3CCCN(Cc4cccc(F)c4C)C3)n2)cc1` (centres unmarked) [MMV689061], with 0.9; and `Cc1ccc(S(=O)(=O)N2CCN(C(=O)c3cc(-c4ccccc4)[nH]n3)CC2)cc1` [MMV019742], with 0.286; and `CCOc1ccc(-c2nc(CNCCc3ccc(F)cc3)cs2)cc1` [MMV688938], with -0.25.
In the case of `Cc1ccc(NC(=O)CC2COc3ccccc3O2)cc1Cl` (centres unmarked) [MMV676431], the “Pathogen Box screen signal/noise ratio” value is listed as 2.3.
Take `O=C1O[C@@H](CO)CN1c1cc(F)c(C2=CCN(Cc3ccccc3)CC2)c(F)c1` [MMV687729]: the “Pathogen Box screen signal/noise ratio” value is given as 1.5.
To `Cc1ccc2nc(Cl)c(CNCc3cccs3)cc2c1` [MMV676439] belongs 0.278; to `Cc1ccc2[nH]c3c(NCCN(C)C)ncnc3c2c1` [MMV006372], 0.333; to `COc1nc2ccc(Br)cc2cc1[C@@H](c1ccccc1)[C@@](O)(CCN(C)C)c1cccc2ccccc12` [MMV689758], 0.444.
Then `c1ccc2c(c1)CN(CC1CC1)CC1(CCN(Cc3c[nH]c4cnccc34)CC1)O2` [MMV023183], with 2.8.
Then `O=C(NC1CC1)c1ccc(CSCc2ccccc2Cl)o1` [MMV007803], with 0.148; and `COc1ccc(-c2nn(C(C)C)c3ncnc(N)c23)cc1OC` [MMV675993], with 0.75.
For `Cc1cc(NCCc2ccccc2)nc(NC(=N)Nc2ccc(Cl)cc2)n1` [MMV021660], the “Pathogen Box screen signal/noise ratio” value was found to be 1.6.
Then `COc1cc(OC)cc(C(=O)NCC2Cc3cc(Cl)cc(-c4ccncc4)c3O2)c1` (centres unmarked) [MMV007471], with 0.2.
To `CC(C)(C)c1cnc(NC(=O)c2ccccc2O)s1` [MMV495543] belongs 0.8; to `CC(C(=O)N1CCCC1)N1CCN(S(=O)(=O)c2ccc(C(C)(C)C)cc2)CC1` (centres unmarked) [MMV020291], 1.8.
Consider `O[C@@H](c1cc(C(F)(F)F)nc2c(C(F)(F)F)cccc12)[C@H]1CCCCN1` [MMV000016], for which the “Pathogen Box screen signal/noise ratio” value was found to be 1.8.
In the case of `Cc1ccc(Oc2ccc(NC(=O)CNc3ccccc3N3CCCC3=O)cc2)cc1` [MMV020512], the “Pathogen Box screen signal/noise ratio” value amounted to 3.4.
On to `COCC(C)NC(=O)CSc1ncnc2sc(-c3ccccc3)cc12` (centres unmarked) [MMV676536], for which the “Pathogen Box screen signal/noise ratio” value is 1.9.
Then `CC1CS(=O)(=O)CCN1/N=C/c1ccc([N+](=O)[O-])o1` (centres unmarked) [MMV001499], with 2.4; and `N#Cc1ccc(-c2ccc(OCC(N)=O)cc2)cc1` [MMV053220], with 0.639; and `CNc1nnc(Sc2cnn(-c3ccccc3)c(=O)c2Cl)s1` [MMV688763], with 4.7.
To `Cc1ccc(NC(=O)c2nc[nH]c2C(=O)Nc2nc3ccccc3[nH]2)c(C)c1` [MMV011903] belongs 1.4; to `Cc1cc(C)n(-c2ccc(NC(=O)C3CCN(Cc4cnc(C)s4)CC3)cc2)n1` [MMV007625], 1.4.
To `Cc1ccc2cc(C3NC(=O)c4ccccc4N3)c(Cl)nc2c1` (centres unmarked) [MMV019807] belongs 0.7.
For `CN1CCN(CCCOc2ncc(Nc3ncc(-c4ccc(C(F)(F)F)c(F)c4)nc3C(N)=O)cn2)CC1` [MMV687812], the “Pathogen Box screen signal/noise ratio” value was found to be 4.1.
As to `Cc1cc(C(=O)Nc2cnn(Cc3ccc(Cl)cc3Cl)c2)no1` [MMV009054], the “Pathogen Box screen signal/noise ratio” value turned out to be 0.179.
